According to ChEMBL document CHEMBL3797078, “Potent, selective and orally bioavailable leucine-rich repeat kinase 2 (LRRK2) inhibitors” (Bioorg Med Chem Lett, 2016):
pKi: −log10 of the molar value.

target: Leucine-rich repeat serine/threonine-protein kinase 2 (Homo sapiens, UniProt Q5S007); assay: not given; conditions: not given
Sequence (Q5S007 whole entry): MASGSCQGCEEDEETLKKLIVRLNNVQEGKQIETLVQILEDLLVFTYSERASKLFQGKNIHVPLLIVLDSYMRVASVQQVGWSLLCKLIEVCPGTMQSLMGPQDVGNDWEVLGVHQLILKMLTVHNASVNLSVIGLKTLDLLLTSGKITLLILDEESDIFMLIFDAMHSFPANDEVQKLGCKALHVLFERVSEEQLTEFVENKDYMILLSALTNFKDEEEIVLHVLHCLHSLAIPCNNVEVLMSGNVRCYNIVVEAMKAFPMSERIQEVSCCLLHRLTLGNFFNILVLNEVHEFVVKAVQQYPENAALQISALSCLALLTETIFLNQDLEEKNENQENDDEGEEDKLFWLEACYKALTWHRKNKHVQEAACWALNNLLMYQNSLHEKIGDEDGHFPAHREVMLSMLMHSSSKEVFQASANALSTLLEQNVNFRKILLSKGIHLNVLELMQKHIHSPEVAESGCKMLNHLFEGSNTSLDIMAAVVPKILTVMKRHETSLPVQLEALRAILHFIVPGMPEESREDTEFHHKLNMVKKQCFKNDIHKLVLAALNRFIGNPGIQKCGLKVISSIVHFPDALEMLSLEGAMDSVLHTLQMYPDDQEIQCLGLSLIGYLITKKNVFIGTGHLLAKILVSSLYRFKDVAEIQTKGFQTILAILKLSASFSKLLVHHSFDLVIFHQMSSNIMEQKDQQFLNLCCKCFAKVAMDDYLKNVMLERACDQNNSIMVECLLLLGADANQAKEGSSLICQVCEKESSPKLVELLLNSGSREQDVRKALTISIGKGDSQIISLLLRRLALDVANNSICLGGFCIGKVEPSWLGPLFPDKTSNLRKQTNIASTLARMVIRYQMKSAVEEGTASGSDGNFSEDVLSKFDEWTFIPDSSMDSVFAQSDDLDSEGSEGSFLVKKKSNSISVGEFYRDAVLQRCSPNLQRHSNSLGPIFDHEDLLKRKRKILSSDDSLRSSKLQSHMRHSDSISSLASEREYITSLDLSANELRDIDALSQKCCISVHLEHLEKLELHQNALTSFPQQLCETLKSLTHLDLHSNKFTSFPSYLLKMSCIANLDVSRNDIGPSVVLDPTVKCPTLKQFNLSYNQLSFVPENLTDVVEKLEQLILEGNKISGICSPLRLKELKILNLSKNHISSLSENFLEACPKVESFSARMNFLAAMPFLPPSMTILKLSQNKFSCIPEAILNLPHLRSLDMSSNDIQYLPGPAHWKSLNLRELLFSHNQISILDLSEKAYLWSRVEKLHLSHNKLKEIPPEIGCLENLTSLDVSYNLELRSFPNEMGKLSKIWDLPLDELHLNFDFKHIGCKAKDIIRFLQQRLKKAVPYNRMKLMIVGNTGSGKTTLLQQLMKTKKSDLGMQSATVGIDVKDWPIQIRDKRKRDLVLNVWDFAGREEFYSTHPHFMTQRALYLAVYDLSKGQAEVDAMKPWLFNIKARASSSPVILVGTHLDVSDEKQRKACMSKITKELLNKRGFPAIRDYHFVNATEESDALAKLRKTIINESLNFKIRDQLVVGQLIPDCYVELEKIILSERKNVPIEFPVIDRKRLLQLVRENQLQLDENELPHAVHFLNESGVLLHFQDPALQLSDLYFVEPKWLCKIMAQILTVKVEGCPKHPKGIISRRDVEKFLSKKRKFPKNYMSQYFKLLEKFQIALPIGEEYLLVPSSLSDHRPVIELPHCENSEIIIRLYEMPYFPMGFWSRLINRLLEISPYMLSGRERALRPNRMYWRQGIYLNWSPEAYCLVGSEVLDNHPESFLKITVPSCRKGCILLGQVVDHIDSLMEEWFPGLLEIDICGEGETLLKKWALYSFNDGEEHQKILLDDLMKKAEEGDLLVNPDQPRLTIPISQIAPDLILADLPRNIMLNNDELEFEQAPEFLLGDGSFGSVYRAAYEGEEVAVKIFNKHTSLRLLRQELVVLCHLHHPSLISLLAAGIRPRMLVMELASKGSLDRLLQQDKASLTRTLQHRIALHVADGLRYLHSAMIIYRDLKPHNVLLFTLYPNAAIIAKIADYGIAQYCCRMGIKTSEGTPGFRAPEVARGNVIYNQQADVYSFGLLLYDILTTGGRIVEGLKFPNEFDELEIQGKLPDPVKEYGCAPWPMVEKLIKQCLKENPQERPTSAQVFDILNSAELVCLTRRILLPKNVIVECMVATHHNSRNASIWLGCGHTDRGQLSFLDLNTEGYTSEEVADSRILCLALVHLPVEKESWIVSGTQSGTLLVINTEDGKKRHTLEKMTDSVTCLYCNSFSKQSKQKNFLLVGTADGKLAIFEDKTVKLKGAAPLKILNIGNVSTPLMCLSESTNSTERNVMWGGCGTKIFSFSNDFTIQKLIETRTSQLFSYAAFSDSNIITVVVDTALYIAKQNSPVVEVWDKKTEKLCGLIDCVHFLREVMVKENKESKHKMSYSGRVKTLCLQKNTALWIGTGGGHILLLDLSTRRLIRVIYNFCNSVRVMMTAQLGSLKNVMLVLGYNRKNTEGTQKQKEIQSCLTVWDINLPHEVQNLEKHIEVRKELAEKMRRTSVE

| pKi | SMILES |
| --- | --- |
| 6.29 | CC1(C)CC(=O)c2c(SCCO)sc(-c3cc[nH]n3)c2C1 |
| 6.63 | CSc1sc(-c2cc[nH]n2)c2c1C(=O)NC1(CCC1)C2 |
| 5.98 | CSc1sc(-c2cc[nH]n2)c2c1C(=O)NC(C1CCC1)C2 (racemic) |
| 6.42 | CSc1sc(-c2cc[nH]n2)c2c1C(=O)CC(C)(C)C2 |
| 5.15 | CC1(C)CC(=O)c2c(S(C)(=O)=O)sc(-c3cc[nH]n3)c2C1 |
| 7.17 | CCCSc1sc(-c2cc[nH]n2)c2c1C(=O)NC[C@@H]2CC |
| 5.47 | CSc1sc(-c2cc[nH]n2)c2c1C(=O)NCC2 |
| 6.41 | CC1(C)CC(=O)c2c(SC3CCCC3)sc(-c3cc[nH]n3)c2C1 |
| 6.22 | CSc1sc(-c2cc[nH]n2)c2c1C(=O)NC[C@H]2C |
| < 5.00 | CSc1sc(-c2cc[nH]n2)c2c1C(=O)N[C@H](c1cccnc1)C2 |
| 6.76 | CC1(C)CC(=O)c2c(SCC3CC3)sc(-c3cc[nH]n3)c2C1 |
| 6.59 | CC(C)Sc1sc(-c2cc[nH]n2)c2c1C(=O)CC(C)(C)C2 |
| 6.32 | CC1(C)CC(=O)c2c(OC3CCCC3)sc(-c3cc[nH]n3)c2C1 |
| 5.55 | CC1(C)CC(=O)c2c(NC3CCCC3)sc(-c3cc[nH]n3)c2C1 |
| 6.34 | O=C1NCCc2c(-c3cc[nH]n3)sc(SC3CCCC3)c21 |
| 6.57 | CSc1sc(-c2cc[nH]n2)c2c1C(=O)NC(c1ccc(F)cc1)C2 (racemic) |
| 5.48 | CSc1sc(-c2cc[nH]n2)c2c1C(=O)NC(c1cccc(F)c1)C2 (racemic) |
| 6.50 | CSc1sc(-c2cc[nH]n2)c2c1C(=O)NC[C@@H]2C |
| 5.33 | CSc1sc(-c2cc[nH]n2)c2c1C(=O)N(c1ccccc1)CC2 |
| 6.81 | CCSc1sc(-c2cc[nH]n2)c2c1C(=O)CC(C)(C)C2 |
| < 5.00 | CC1(C)CC(=O)c2c(SCc3ccccc3)sc(-c3cc[nH]n3)c2C1 |
| 6.04 | O=C1NCCc2c(-c3cc[nH]n3)sc(SC3CCCCC3)c21 |

| pKi | SMILES |
| --- | --- |
| 7.24 | CC[C@H]1CNC(=O)c2c(SCC3CC3)sc(-c3cc[nH]n3)c21 |
| 6.21 | O=C1NCCc2c(-c3cc[nH]n3)sc(SC3CC3)c21 |
| 7.08 | C[C@H]1CNC(=O)c2c(SCC3CC3)sc(-c3cc[nH]n3)c21 |
| 5.25 | CSc1sc(-c2cc[nH]n2)c2c1C(=O)N(C)CC2 |
| 5.25 | CSc1sc(-c2ccn(C)n2)c2c1C(=O)CC(C)(C)C2 |
| < 5.00 | O=C1CCCc2c(-c3cc[nH]n3)sc(NC3CCCC3)c21 |
| 6.30 | CSc1sc(-c2cc[nH]n2)c2c1C(=O)NC(C(F)(F)F)C2 (racemic) |
| 6.01 | CC(C)Sc1sc(-c2cc[nH]n2)c2c1C(=O)NCC2 |
| 6.53 | O=C1CCCc2c(-c3cc[nH]n3)sc(SC3CCCC3)c21 |
| 6.47 | CSc1sc(-c2cc[nH]n2)c2c1C(=O)NC[C@H]2Cc1ccccc1 |
| 5.72 | CC1(C)CC(=O)c2c(SCCc3ccccc3)sc(-c3cc[nH]n3)c2C1 |
| 6.23 | CCSc1sc(-c2cc[nH]n2)c2c1C(=O)NCC2 |
| 6.51 | CSc1sc(-c2cc[nH]n2)c2c1C(=O)CCC2 |
| 6.24 | CCCSc1sc(-c2cc[nH]n2)c2c1C(=O)NCC2 |
| < 5.00 | CSc1sc(-c2cc[nH]n2)c2c1C(=O)NC1(CC1)C2 |
| 7.08 | CCCSc1sc(-c2cc[nH]n2)c2c1C(=O)NC[C@@H]2C |
| 6.39 | CSc1sc(-c2cc[nH]n2)c2c1C(=O)NC1(CCCC1)C2 |
| 6.00 | Cc1nnc(Sc2sc(-c3cc[nH]n3)c3c2C(=O)CC(C)(C)C3)s1 |
| 5.35 | O=C1NCCc2c(-c3cc[nH]n3)sc(Sc3ccccc3)c21 |
| 5.28 | CCCc1sc(-c2cc[nH]n2)c2c1C(=O)CC(C)(C)C2 |
| 5.91 | CSc1sc(-c2cc[nH]n2)c2c1C(=O)NC(C)C2 (racemic) |
| 6.03 | CSc1sc(-c2cc[nH]n2)c2c1C(=O)NC(Cc1ccccc1)C2 (racemic) |

test system: not listed separately; assay: in vivo; conditions: rat, po, 10 mg/kg

| bioavailability [%] | SMILES |
| --- | --- |
| 70 | CSc1sc(-c2cc[nH]n2)c2c1C(=O)NCC2 |
| 0.2 | CC1(C)CC(=O)c2c(SC3CCCC3)sc(-c3cc[nH]n3)c2C1 |
| 33 | CSc1sc(-c2cc[nH]n2)c2c1C(=O)CCC2 |
| 98 | CCCSc1sc(-c2cc[nH]n2)c2c1C(=O)NC[C@@H]2C |

test system: not listed separately; assay: in vivo; conditions: rat, plasma, iv, 2 mg/kg

| clearance [mL/min/kg] | SMILES |
| --- | --- |
| 47.5 | CSc1sc(-c2cc[nH]n2)c2c1C(=O)NCC2 |
| 95.5 | CC1(C)CC(=O)c2c(SC3CCCC3)sc(-c3cc[nH]n3)c2C1 |
| 56 | CSc1sc(-c2cc[nH]n2)c2c1C(=O)CCC2 |
| 11.9 | CCCSc1sc(-c2cc[nH]n2)c2c1C(=O)NC[C@@H]2C |

test system: not listed separately; assay: in vivo; conditions: rat, plasma, ip, 5 mg/kg
Description: Plasma concentration in rat at 5 mg/kg, ip after 1 hr

| concentration at 1 h [nM] | SMILES |
| --- | --- |
| 28300 | CSc1sc(-c2cc[nH]n2)c2c1C(=O)NCC2 |
| 970 | CC1(C)CC(=O)c2c(SC3CCCC3)sc(-c3cc[nH]n3)c2C1 |
| 2330 | CSc1sc(-c2cc[nH]n2)c2c1C(=O)CCC2 |
| 24400 | CCCSc1sc(-c2cc[nH]n2)c2c1C(=O)NC[C@@H]2C |

test system: not listed separately; assay: in vivo; conditions: rat, iv, 2 mg/kg
Description: Half life in rat at 2 mg/kg, iv

| half-life [h] | SMILES |
| --- | --- |
| 1.4 | CSc1sc(-c2cc[nH]n2)c2c1C(=O)NCC2 |
| 1.2 | CC1(C)CC(=O)c2c(SC3CCCC3)sc(-c3cc[nH]n3)c2C1 |
| 6.5 | CSc1sc(-c2cc[nH]n2)c2c1C(=O)CCC2 |
| 3.6 | CCCSc1sc(-c2cc[nH]n2)c2c1C(=O)NC[C@@H]2C |

test system: not listed separately; assay: in vivo; conditions: rat, cerebrospinal fluid, ip, 5 mg/kg
Description: Drug uptake in CSF in rat at 5 mg/kg, ip after 1 hr

| concentration at 1 h [nM] | SMILES |
| --- | --- |
| 500 | CSc1sc(-c2cc[nH]n2)c2c1C(=O)NCC2 |
| 10 | CC1(C)CC(=O)c2c(SC3CCCC3)sc(-c3cc[nH]n3)c2C1 |
| 50 | CSc1sc(-c2cc[nH]n2)c2c1C(=O)CCC2 |
| 150 | CCCSc1sc(-c2cc[nH]n2)c2c1C(=O)NC[C@@H]2C |

test system: not listed separately; assay: in vitro; conditions: rat, in vivo
Description: Intrinsic clearance in rat

| CLint scaled [mL/min/kg] | SMILES |
| --- | --- |
| 1300 | CSc1sc(-c2cc[nH]n2)c2c1C(=O)NCC2 |
| 6500 | CSc1sc(-c2cc[nH]n2)c2c1C(=O)CCC2 |
| 1200 | CCCSc1sc(-c2cc[nH]n2)c2c1C(=O)NC[C@@H]2C |

test system: not listed separately; assay: in vivo; conditions: rat, po, 10 mg/kg; remark: another data set of the same source

| Cmax [nM] | SMILES |
| --- | --- |
| 4800 | CSc1sc(-c2cc[nH]n2)c2c1C(=O)NCC2 |
| 120 | CC1(C)CC(=O)c2c(SC3CCCC3)sc(-c3cc[nH]n3)c2C1 |
| 1600 | CSc1sc(-c2cc[nH]n2)c2c1C(=O)CCC2 |
| 16000 | CCCSc1sc(-c2cc[nH]n2)c2c1C(=O)NC[C@@H]2C |

test system: not listed separately; assay: Protein binding in rat plasma; type: ADME, cell-free; conditions: read-out: PPB (converted)

| fraction unbound | SMILES |
| --- | --- |
| 0.007 | CC1(C)CC(=O)c2c(SC3CCCC3)sc(-c3cc[nH]n3)c2C1 |

test system: not listed separately; assay: in vivo; conditions: rat, po, 10 mg/kg; remark: another data set of the same source

| AUC [µM·h] | SMILES |
| --- | --- |
| 14 | CSc1sc(-c2cc[nH]n2)c2c1C(=O)NCC2 |
| 0.01 | CC1(C)CC(=O)c2c(SC3CCCC3)sc(-c3cc[nH]n3)c2C1 |
| 3.8 | CSc1sc(-c2cc[nH]n2)c2c1C(=O)CCC2 |
| 46.1 | CCCSc1sc(-c2cc[nH]n2)c2c1C(=O)NC[C@@H]2C |
